Test system: HT-1080
Test: Modulatory profiling: Alamar Blue viability, lethal compound cotreated with death modulator (EC50, AUC)
Type: cell-based
Design: AUC, modulator HT.3MA / AUC, modulator HT.ALLN / AUC HT.ATA / AUC HT.ActD / AUC HT.BHA / AUC HT.BHT / AUC HT.BocD / AUC HT.CHX / AUC HT.Co2+ / AUC HT.DPQ / AUC HT.EGTA / AUC HT.Lmim / AUC HT.NAD+ / AUC HT.Nec-1 / AUC HT.SP600125 / AUC HT.TLCK / AUC HT.U0126: unit not given beside the values
Conditions: for AUC HT.ATA: HT-1080, modulator ATA; for AUC HT.ActD: HT-1080, modulator ActD; for AUC HT.BHA: HT-1080, modulator BHA; for AUC HT.BHT: HT-1080, modulator BHT; for AUC HT.BocD: HT-1080, modulator BocD; for AUC HT.CHX: HT-1080, modulator CHX; for AUC HT.Co2+: HT-1080, modulator Co2+; for AUC HT.CspA: HT-1080, modulator CspA; for AUC HT.DPQ: HT-1080, modulator DPQ; for AUC HT.EGTA: HT-1080, modulator EGTA; for AUC HT.Gd3+: HT-1080, modulator Gd3+; for AUC HT.LNAME: HT-1080, modulator LNAME; for AUC HT.Lmim: HT-1080, modulator Lmim; for AUC HT.NAD+: HT-1080, modulator NAD+; for AUC HT.NMMA: HT-1080, modulator NMMA; for HT.atoc (AUC) / HT.bCarotene (AUC) / HT.deferox (AUC) / HT.digoxin (AUC) / HT.trolox (AUC) / HT.zVAD (AUC): HT-1080; for HT.atoc (AUC): modulator atoc; for HT.bCarotene (AUC): modulator bCarotene; for HT.deferox (AUC): modulator deferox; for HT.digoxin (AUC): modulator digoxin; for HT.trolox (AUC): modulator trolox; for HT.zVAD (AUC): modulator zVAD; for AUC, modulator HT.3MA / AUC, modulator HT.ALLN: HT-1080 cells, modulatory profile value (AUC); for AUC, modulator HT.3MA: lethal compound cotreated with modulator 3MA; for AUC, modulator HT.ALLN: lethal compound cotreated with modulator ALLN; for AUC HT.Nec-1: HT-1080, modulator Nec-1; for AUC HT.Pepstatin: HT-1080, modulator Pepstatin; for AUC HT.SP600125: HT-1080, modulator SP600125; for AUC HT.TLCK: HT-1080, modulator TLCK; for AUC HT.U0126: HT-1080, modulator U0126

SMILES | AUC HT.ATA | AUC HT.ActD | AUC HT.BHA | AUC HT.BHT | AUC HT.BocD | AUC HT.CHX | AUC HT.Co2+ | AUC HT.CspA | AUC HT.DPQ | AUC HT.EGTA | AUC HT.Gd3+ | AUC HT.LNAME | AUC HT.Lmim | AUC HT.NAD+ | AUC HT.NMMA | HT.atoc (AUC) | HT.bCarotene (AUC) | HT.deferox (AUC) | HT.digoxin (AUC) | HT.trolox (AUC) | other results
C[S+]([O-])c1nc(-c2ccc(Br)cc2)cc(-c2ccccc2)c1C#N (centres unmarked) [CIL17] | −0.0157 | −0.03982 | −0.02052 | −0.138 | 0.0313 | 0.06579 | −0.008436 | −0.03354 | −0.02303 | 0.001857 | −0.04318 | 0.02242 | −0.0132 | 0.04423 | −0.02639 | 0.145 | −0.005211 | 0.02894 | −0.003189 | 0.004595 | HT.zVAD (AUC): 0.008536; AUC, modulator HT.3MA: 0.01558; AUC, modulator HT.ALLN: 0.03631
CC(C)=CCCC1=CCC(CNCCCN(C)C)C(C)C1 (centres unmarked) [CIL28] | 0.06113 | −0.01352 | −0.1362 | −0.1108 | 0.01462 | 0.0328 | −0.03292 | −0.01858 | 0.04404 | 0.005868 | −0.02583 | −0.0045 | 0.001311 | 0.007089 | −0.009763 | 0.1068 | −0.03341 | −0.04312 | −0.007104 | −0.03025 | HT.zVAD (AUC): −0.009003; AUC, modulator HT.3MA: 0.0937; AUC, modulator HT.ALLN: 0.04719
OCCNCC(O)Cn1c2ccc(Br)cc2c2cc(Br)ccc21 (centres unmarked) [CIL7] | −0.01671 | −0.01197 | −0.06352 | −0.103 | 0.07799 | 0.0511 | 0.1062 | −0.06441 | 0.005254 | 0.006456 | −0.02982 | 0.01998 | −0.002674 | 0.07707 | −0.02442 | 0.02896 | −0.0174 | −0.05071 | 0.003869 | −0.006321 | AUC HT.Nec-1: 0.007138; AUC HT.Pepstatin: −0.00124; AUC HT.SP600125: −0.04155; AUC HT.TLCK: −0.01113; AUC HT.U0126: 0.01556; HT.zVAD (AUC): −0.03773; AUC, modulator HT.3MA: −0.004626; AUC, modulator HT.ALLN: 0.1136
O=C1c2c(O)ccc(O)c2C(=O)c2c(NCCNCCO)ccc(NCCNCCO)c21 [Mitoxantrone] | 0.02422 | −0.02073 | 0.02091 | −0.0249 | 0.06802 | 0.04002 | 0.3817 | −0.1127 | 0.006504 | 0.01802 | 0.03227 | 0.01298 | 0.05678 | 0.1502 | 0.0236 | 0.04839 | −0.003915 | 0.1001 | 0.1321 | −0.01388 | AUC HT.Nec-1: 0.01073; AUC HT.Pepstatin: 0.02067; AUC HT.SP600125: −0.01575; AUC HT.TLCK: 0.06003; AUC HT.U0126: −0.03205; HT.zVAD (AUC): 0.03446; AUC, modulator HT.3MA: 0.02955; AUC, modulator HT.ALLN: 0.07355
O=C(CCCCCN1C(=O)c2cccc3cccc(c23)C1=O)NO [Scriptaid] | −0.03873 | −0.1632 | −0.05883 | −0.103 | 0.02828 | −0.1048 | −0.1939 | −0.1413 | −0.00813 | −0.01767 | −0.02176 | −0.002637 | −0.05583 | 0.01064 | 0.008869 | −0.009331 | −0.01872 | −0.1469 | −0.08793 | −0.02986 | AUC HT.Nec-1: −0.05617; AUC HT.Pepstatin: −0.01296; AUC HT.SP600125: −0.07; AUC HT.TLCK: −0.05575; AUC HT.U0126: −0.04228; HT.zVAD (AUC): 0.02988; AUC, modulator HT.3MA: −0.1244; AUC, modulator HT.ALLN: −0.1403
CC(/C=C/C(=O)NO)=C\[C@@H](C)C(=O)c1ccc(N(C)C)cc1 [TrichostatinA] | −0.0004817 | −0.1678 | −0.06956 | −0.1352 | 0.04109 | −0.09696 | −0.02771 | −0.1437 | −0.001553 | −0.01711 | −0.003398 | 0.003502 | −0.05021 | 0.03432 | 0.004335 | −0.005062 | −0.03472 | −0.1597 | −0.1261 | −0.03382 | AUC HT.Nec-1: −0.07289; AUC HT.Pepstatin: −0.003985; AUC HT.SP600125: −0.06865; AUC HT.TLCK: −0.02599; AUC HT.U0126: −0.06468; HT.zVAD (AUC): 0.04012; AUC, modulator HT.3MA: −0.1241; AUC, modulator HT.ALLN: −0.1481

Reference: patent publication US10947188B2, “Small molecule ferroptosis inducers” (THE TRUSTEES OF COLUMBIA UNIVERSITY IN THE CITY OF NEW YORK, priority 2016, dated 2021)
